From ChEMBL document CHEMBL4651402, “Screening of ~5500 FDA-approved drugs and clinical candidates for anti-SARS-CoV-2 activity” (2021)

Tested on: SARS-CoV-2
Assay: microbe, parasite or virus in culture
Conditions: Severe acute respiratory syndrome coronavirus 2, Vero C1008, 48 h

SMILES | IC50 [µM] | IC50 (read-out: pIC50 (converted)) [µM]
O=c1c(O)cc([C@H]2Oc3cc(O)cc(O)c3C[C@H]2O)cc2c([C@H]3Oc4cc(O)cc(O)c4C[C@H]3O)cc(O)c(O)c12 [THEAFLAVIN] | > 20 | > 20
O=c1cc(-c2ccccc2)oc2cccc(O)c12 [5-HYDROXYFLAVONE] | > 20 | > 20
CC/C=C/C/C=C/C/C=C/C/C=C/C/C=C/CCCC(=O)O | > 20 | > 20
CC(C)c1noc(N2CCC(COc3ccc(-c4ccc(S(C)(=O)=O)cc4)nc3)CC2)n1 [GSK-1292263] | > 20 | > 20
CCC1(c2ccccc2)C(=O)NCNC1=O [PRIMIDONE] | > 20 | > 20
Cn1cc([S+](C)[O-])c(=O)c2ccc(F)cc21 (stereo not drawn) [FLOSEQUINAN] | > 20 | > 20
CC(O)(CS(=O)(=O)c1ccc(F)cc1)C(=O)Nc1ccc(C#N)c(C(F)(F)F)c1 (stereo not drawn) [BICALUTAMIDE] | > 20 | > 20
CS(=O)(=O)c1ccc(C2=C(c3ccccc3)C(=O)OC2)cc1 [ROFECOXIB] | > 20 | > 20
Nc1nc(N)c2nc(-c3cccc(O)c3)c(-c3cccc(O)c3)nc2n1 [TG100-115] | > 20 | > 20
CN1CCc2cc3c(c4c2[C@@H]1Cc1ccccc1-4)OCO3 | > 20 | > 20
COc1ccc(CC2c3cc(OC)c(OC)cc3CCN2C)cc1OC (stereo not drawn) [LAUDANOSINE] | > 20 | > 20
CO[C@H]1/C=C/O[C@@]2(C)Oc3c(C)c(O)c4c(O)c(c(/C=N/N5CCN(C)CC5)c(O)c4c3C2=O)NC(=O)/C(C)=C\C=C\[C@H](C)[C@H](O)[C@@H](C)[C@@H](O)[C@@H](C)[C@H](OC(C)=O)[C@@H]1C [RIFAMPIN] | > 20 | > 20
COC(=O)C1=C(C)NC(C)=C(C(=O)OCCN2CCN(C(c3ccccc3)c3ccccc3)CC2)C1c1cccc([N+](=O)[O-])c1 (stereo not drawn) [MANIDIPINE 6300] | > 20 | > 20
OCCOCCN1CCN(C(c2ccccc2)c2ccc(Cl)cc2)CC1 (stereo not drawn) [HYDROXYZINE] | > 20 | > 20
COc1cc2c(cc1OC)C(CCc1ccc(Cl)cc1)N(C)CC2 (stereo not drawn) [METHOPHOLINE] | > 20 | > 20
C[C@H](N)Cc1cccc(O)c1 [GEPEFRINE] | > 20 | > 20
O=c1[nH]c(=O)n([C@H]2C[C@H](O)[C@@H](CO)O2)cc1F [FLOXURIDINE] | > 20 | > 20
CCc1c(O)cc(O)c(C(=O)c2ccc(OCCN3CCOCC3)c(OC)c2)c1CC(=O)N(CCOC)CCOC [KW-2478 FREE BASE] | > 20 | > 20
CC[N+](C)(C)CCC(C(N)=O)(c1ccccc1)c1ccccc1 [AMBUTONIUM] | > 20 | > 20
Clc1ccc(CSC(Cn2ccnc2)c2ccc(Cl)cc2Cl)cc1 (stereo not drawn) [SULCONAZOLE] | > 20 | > 20
CN1[C@@H]2CC[C@H]1CC(NC(=O)n1c(=O)[nH]c3ccccc31)C2 (stereo partly drawn) | > 20 | > 20
CCN(CC)CCNc1ccc(CO)c2sc3ccccc3c(=O)c12 [HYCANTHONE] | > 20 | > 20
c1ccc(C(CCN2CCCCC2)c2ccccc2)cc1 | > 20 | > 20
Nc1cc(C(F)(F)F)c(-c2cc(N3CCOCC3)nc(N3CCOCC3)n2)cn1 [BUPARLISIB] | > 20 | > 20
CC(C)[C@H](N)C(=O)OCC(CO)OCn1cnc2c(=O)[nH]c(N)nc21 (stereo partly drawn) [VALGANCICLOVIR] | > 20 | > 20

SMILES | IC50 [µM] | IC50 (read-out: pIC50 (converted)) [µM]
CN1CCN(c2c(F)cc3c(=O)c(C(=O)O)cn(CCF)c3c2F)CC1 [FLEROXACIN] | > 20 | > 20
NC(=O)C1CC2(NC(=O)NC2=O)c2cc(F)ccc2O1 (stereo not drawn) | > 20 | > 20
CCOC(=O)/C=C/[C@H](C[C@@H]1CCNC1=O)NC(=O)[C@@H](CC(=O)[C@@H](NC(=O)c1cc(C)on1)C(C)C)Cc1ccc(F)cc1 | > 25.1 | > 25.1
CCCc1ccc(C(=O)O)nc1 | > 20 | > 20
Oc1ccc2c3c1O[C@H]1[C@@H](O)CC[C@@]4(O)C(C2)N(CC2CCC2)CCC314 (stereo partly drawn) | > 20 | > 20
CC(C)(C)c1cc2c(cc1Cl)C=C(C(=O)O)C(C(F)(F)F)O2 (stereo not drawn) | > 20 | > 20
Nc1nc(OCc2ccccc2)c2nc[nH]c2n1 [6-O-BENZYLGUANINE] | > 20 | > 20
Clc1cnccn1 | > 20 | > 20
COc1cccc(N2CCN(C3=Nc4c(F)cccc4C(CC(=O)O)N3c3cc(C(F)(F)F)ccc3OC)CC2)c1 (stereo not drawn) | > 20 | > 20
CC(C)[C@](O)(c1ccc2cc(OC(F)F)c(OC(F)F)cc2c1)c1c[nH]nn1 [SEVITERONEL] | > 20 | > 20
CC(=O)O[C@H]1C[C@@H]2CC[C@@H]3[C@H](CC[C@@]4(C)[C@H]3C[C@H]([N+]3(C)CCCCC3)[C@@H]4OC(C)=O)[C@@]2(C)C[C@@H]1[N+]1(C)CCCCC1 [PANCURONIUM] | > 20 | > 20
CSc1ccc2ncn(/C=C/C(=O)O)c(=O)c2c1 | > 20 | > 20
NCCCC(N)C(=O)O (stereo not drawn) [ORNITHINE aKETOGLUTARATE] | > 10 | > 10
CNC(=N)NC(=O)Nc1c(C)cccc1C [LIDAMIDINE] | > 20 | > 20
CCCCCCOC(=O)NC(=N)c1ccc(NCc2nc3cc(C(=O)N(CCC(=O)OCC)c4ccccn4)ccc3n2C)cc1 [DABIGATRAN ETEXILATE] | > 20 | > 20
O=C(/C=C/c1ccc(O)cc1)c1ccc(O)cc1O [ISOLIQUIRITIGENIN] | > 20 | > 20
CC(C)(C)C(=O)NNCc1ccccc1 [PIVHYDRAZINE] | > 20 | > 20
CCCC(=O)Nc1ccc(OCC(O)CNC(C)C)c(C(C)=O)c1 (stereo not drawn) [ACEBUTOLOL] | > 20 | > 20
NC(=O)Cc1cccc(C(=O)c2ccccc2)c1N | > 20 | > 20
COc1cc(NC(=O)Nc2cccc(CNC(=O)O[C@H]3CCOC3)c2)ccc1-c1cnco1 [MERIMEPODIB] | > 20 | > 20
Clc1ccc(Cn2c(CN3CCCC3)nc3ccccc32)cc1 [CLEMIZOLE] | > 20 | > 20
CNCC(=O)c1ccc(O)c(O)c1 [ADRENALONE] | > 20 | > 20
Oc1cc(O)c2cc(O)c(-c3ccc(O)c(O)c3)[o+]c2c1 [CYANIDIN] | > 20 | > 20
CCCNC(C)C(=O)Nc1c(C)csc1C(=O)OC (stereo not drawn) [ARTICAINE] | > 20 | > 20
c1ccc([C@@H]2CN3CCSC3=N2)cc1 [DEXAMISOLE] | > 20 | > 20

SMILES | IC50 [µM] | IC50 (read-out: pIC50 (converted)) [µM]
CC1CNc2c(cccc2S(=O)(=O)N[C@@H](CCCNC(=N)N)C(=O)N2CC[C@H](C)C[C@@H]2C(=O)O)C1 (stereo partly drawn) | > 20 | > 20
CC(C)=CCC[C@@](C)(O)[C@H]1CC=C(C)CC1 | > 20 | > 20
O=C(O)CCCO [OXYBATE] | > 20 | > 20
C=CCc1ccccc1OCC(O)CNC(C)C (stereo not drawn) [ALPRENOLOL] | > 20 | > 20
C[C@]12CC[C@H]3[C@@H](CCC4=CC(=O)CC[C@@H]43)[C@@H]1CC[C@@H]2O [NANDROLONE] | > 20 | > 20
O=C1CCC(c2ccccc2)(C2CCN(Cc3ccccc3)CC2)C(=O)N1 (stereo not drawn) [BENZETIMIDE] | > 20 | > 20
[2H]C([2H])(CCCCCCCC)C([2H])([2H])CCCCCC(=O)OC1CCCn2c1nc(C)c(CCN1CCC(c3noc4cc(F)ccc34)CC1)c2=O (stereo not drawn) | > 20 | > 20
C[C@]12CC[C@H]3[C@@H](CC[C@@]45O[C@@H]4C(O)=C(C#N)C[C@]35C)[C@@H]1CC[C@@H]2O [TRILOSTANE] | > 20 | > 20
COc1ccc2c(c1)CN(C(=O)CCN1CCC(Cc3ccccc3)CC1)CCS2 | > 20 | > 20
O=C(O)c1nn(Cc2ccc(Cl)cc2Cl)c2ccccc12 [LONIDAMINE] | > 20 | > 20
CNC(=O)[C@@H](NC(=O)[C@H](CC(C)C)[C@H](O)C(=O)NO)C(C)(C)C | > 20 | > 20
NS(=O)(=O)c1cc2c(cc1Cl)NCNS2(=O)=O [HYDROCHLOROTHIAZIDE] | > 20 | > 20
CC(C)(S)[C@@H](N)C(=O)O [PENICILLAMINE] | > 20 | > 20
CCCC[N+]1(C)[C@@H]2C[C@@H](OC(=O)[C@H](CO)c3ccccc3)C[C@H]1[C@@H]1O[C@@H]12 (stereo partly drawn) [BUTYLSCOPOLAMINE] | > 20 | > 20
COc1cc(C)c(/C=C/C(C)=C/C=C/C(C)=C/C(=O)O)c(C)c1C [ACITRETIN] | > 20 | > 20
CCCCCCCCCCCC(=O)O [DODECANOATE] | > 20 | > 20
CC1(C)CC2C1CCC1(C)OC2(C)CCC1O (stereo not drawn) [3,7-EPOXYCARYOPHYLLAN-6-OL] | > 20 | > 20
O=C(O)c1cc(NC(=O)[C@H](Cc2ccccc2F)NC(=O)c2cc3[nH]cnc3cc2C(=O)NCC2CCCCCC2)cc(C(=O)O)c1 | > 20 | > 20
Cc1cn([C@H]2C[C@H](N=[N+]=[N-])[C@@H](CO)O2)c(=O)[nH]c1=O [ZIDOVUDINE] | > 100 | > 100
COc1ccc(-c2cc(=O)c3cc(OC)ccc3o2)cc1 [6,4'-DIMETHOXYFLAVONE] | > 20 | > 20
CCN1CCC[C@H]1CNC(=O)c1c(OC)ccc(Br)c1OC [REMOXIPRIDE] | > 20 | > 20
CCn1cc(C(=O)O)c(=O)c2cc(F)c(N3CCNCC3)nc21 [ENOXACIN] | > 20 | > 20
COC(=O)Nc1cccc(C)c1CNc1cccn2c(C)c(C)nc12 [PUMAPRAZOLE] | > 20 | > 20
CCCCOc1ccc(CC(=O)NO)cc1 [BUFEXAMAC] | > 20 | > 20
